Data as given in patent US20250340567A1, “Next Generation Synthetic Transcription Factors” (WISCONSIN ALUMNI RESEARCH FOUNDATION, priority 2018, published 2025).

Legend:
[1] = test system: BET BD1; details: cited from earlier work
[2] = test system: BET BD2; details: cited from earlier work
[3] = Stability of synthetic transcription factors on storage, followed by mass spectra; type: physicochemical; details: at 18° C., mass spectra (FIG. 2)
Protocol: In as little as 5 days at 18° C., SynTEF1 begins to break down (FIG. 2).
Other synthetic transcription factors having an ether bond as described herein between the bromodomain binding moiety and the linker also have shown improved stability.

[4] = biological target: BRD2 (Homo sapiens, UniProt P25440); details: cited from earlier work
BRD2, sequence (P25440 whole entry, species assumed): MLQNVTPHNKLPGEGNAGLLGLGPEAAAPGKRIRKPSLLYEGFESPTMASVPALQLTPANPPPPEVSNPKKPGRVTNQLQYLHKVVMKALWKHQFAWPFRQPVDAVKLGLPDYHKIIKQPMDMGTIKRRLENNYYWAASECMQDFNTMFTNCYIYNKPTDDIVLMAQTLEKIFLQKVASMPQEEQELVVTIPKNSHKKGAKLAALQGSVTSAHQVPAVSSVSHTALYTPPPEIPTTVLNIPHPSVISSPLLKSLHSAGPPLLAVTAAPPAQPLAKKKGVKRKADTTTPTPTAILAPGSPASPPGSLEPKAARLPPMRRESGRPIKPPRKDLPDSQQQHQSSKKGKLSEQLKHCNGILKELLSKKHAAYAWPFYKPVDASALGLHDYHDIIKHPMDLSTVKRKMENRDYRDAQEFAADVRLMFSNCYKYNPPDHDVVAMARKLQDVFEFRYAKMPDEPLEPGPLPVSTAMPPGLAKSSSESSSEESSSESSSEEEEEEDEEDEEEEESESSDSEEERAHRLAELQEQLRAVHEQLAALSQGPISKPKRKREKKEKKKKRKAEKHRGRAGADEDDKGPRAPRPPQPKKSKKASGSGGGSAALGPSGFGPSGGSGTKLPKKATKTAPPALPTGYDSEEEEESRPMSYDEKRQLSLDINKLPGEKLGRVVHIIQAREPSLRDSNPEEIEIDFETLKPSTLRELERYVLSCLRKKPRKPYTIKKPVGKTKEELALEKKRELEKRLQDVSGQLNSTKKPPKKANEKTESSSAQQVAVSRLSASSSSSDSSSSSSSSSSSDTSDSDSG

[5] = biological target: BRD3 (Homo sapiens, UniProt Q15059); details: cited from earlier work
BRD3, sequence (Q15059 whole entry, species assumed): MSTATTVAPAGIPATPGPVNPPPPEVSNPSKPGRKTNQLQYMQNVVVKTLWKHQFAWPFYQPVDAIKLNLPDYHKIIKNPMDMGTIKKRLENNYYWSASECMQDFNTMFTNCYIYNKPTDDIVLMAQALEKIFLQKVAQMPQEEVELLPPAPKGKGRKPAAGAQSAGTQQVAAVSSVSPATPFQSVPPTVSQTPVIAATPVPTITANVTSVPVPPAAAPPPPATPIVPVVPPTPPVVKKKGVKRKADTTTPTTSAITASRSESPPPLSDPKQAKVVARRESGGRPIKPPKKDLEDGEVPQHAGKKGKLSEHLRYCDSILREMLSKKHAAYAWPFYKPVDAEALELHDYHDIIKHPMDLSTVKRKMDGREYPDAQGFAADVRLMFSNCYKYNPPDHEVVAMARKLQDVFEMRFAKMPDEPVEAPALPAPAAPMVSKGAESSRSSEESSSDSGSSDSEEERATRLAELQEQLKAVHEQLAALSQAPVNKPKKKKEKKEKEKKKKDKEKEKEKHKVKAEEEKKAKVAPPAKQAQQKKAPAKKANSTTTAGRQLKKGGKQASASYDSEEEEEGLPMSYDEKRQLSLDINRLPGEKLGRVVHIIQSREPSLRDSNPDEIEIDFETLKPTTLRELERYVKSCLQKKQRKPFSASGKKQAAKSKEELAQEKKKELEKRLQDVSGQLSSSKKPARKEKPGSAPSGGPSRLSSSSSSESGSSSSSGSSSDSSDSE

[6] = test system: BET bromodomain; details: read-out: IC50 BET bromodomain; cited from earlier work
[7] = biological target: BRD4(1) first bromodomain (Homo sapiens, UniProt O60885); details: cited from earlier work
[8] = biological target: BRD4(2) second bromodomain (Homo sapiens, UniProt O60885); details: cited from earlier work

COc1cc(OC)c2c(=O)[nH]c(-c3cc(C)c(OCCO)c(C)c3)nc2c1 [RVX208]
IC50 [1]: 87000 nM
IC50 [2]: 510 nM

Cc1sc2c(c1C)C(c1ccc(Cl)cc1)=N[C@@H](CC(=O)NCCOCCOCCOCCOCCOCCOCCC(=O)NCCCN(C)CCCNC(=O)CCNC(=O)c1nc(NC(=O)CCNC(=O)c3cc(NC(=O)c4nc(NC(=O)CCNC(=O)c5cc(NC(=O)c6nccn6C)cn5C)cn4C)cn3C)cn1C)c1nnc(C)n1-2 [SynTEF1]
time at which the compound begins to break down [3]: ≤ 5 days

CC(=O)N1c2ccc(-c3ccc(C(=O)O)cc3)cc2[C@H](Nc2ccc(Cl)cc2)C[C@@H]1C [I-BET726]
IC50 [4]: 41 nM
IC50 [5]: 31 nM

CCNC(=O)C[C@@H]1N=C(c2ccc(Cl)cc2)c2cc(OC)ccc2-n2c(C)nnc21 [I-BET762]
IC50 [6]: 32.5 to 42.5 nM

Cc1sc2c(c1C)C(c1ccc(Cl)cc1)=N[C@@H](CC(=O)NC(C)(C)C)c1nnc(C)n1-2 [(+)-JQ1]
IC50 [7]: 77 nM
IC50 [8]: 33 nM
